Experimental data from patent publication US9353082B2, “Pharmaceutical compounds” (BIAL—PORTELA & CA, S.A., priority 2008, dated 2016).

Experiments:
[1] = target: T1, FAAH (Rattus norvegicus, UniProt P97612); assay: In vitro FAAH activity in rat brain membranes, 3H-AEA substrate, % of control; type: biochemical, Wistar rats; conditions: low value = strong inhibitor; for In Vitro FAAH activity, 100 nM: 100 nM test compound; for In Vitro FAAH activity, 10 uM: 10 uM test compound
T1 construct: Frozen brains (without cerebellum) from Wistar rats were used; from tissue; host or cells: Wistar rat brain (without cerebellum), washed membrane pellets
T1 sequence (P97612 1-579): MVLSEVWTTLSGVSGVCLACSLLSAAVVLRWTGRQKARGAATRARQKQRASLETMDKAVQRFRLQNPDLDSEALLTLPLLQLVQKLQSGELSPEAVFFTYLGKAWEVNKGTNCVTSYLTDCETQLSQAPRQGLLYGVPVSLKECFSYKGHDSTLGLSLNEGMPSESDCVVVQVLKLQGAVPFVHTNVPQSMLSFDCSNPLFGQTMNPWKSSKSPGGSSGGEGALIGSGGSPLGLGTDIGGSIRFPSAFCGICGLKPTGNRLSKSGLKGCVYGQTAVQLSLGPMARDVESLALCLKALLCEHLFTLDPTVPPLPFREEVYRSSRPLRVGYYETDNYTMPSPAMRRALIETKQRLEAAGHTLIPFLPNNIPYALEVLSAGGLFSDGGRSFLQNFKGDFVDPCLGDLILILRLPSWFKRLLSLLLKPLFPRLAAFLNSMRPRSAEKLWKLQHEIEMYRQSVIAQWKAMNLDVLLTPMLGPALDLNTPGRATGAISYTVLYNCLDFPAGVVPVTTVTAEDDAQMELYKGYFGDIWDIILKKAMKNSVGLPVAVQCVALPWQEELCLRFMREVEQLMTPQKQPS
Method in brief: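 FAAH activity measured as 3H-ethanolamine released from 2 μM [3H]AEA over 10 min by rat brain membrane preparation, after 15 min 37 °C preincubation with test compound at 10 or 0.1 μM. Charcoal-separated supernatant scintillation-counted; values expressed as % of control minus no-protein blank.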

[2] = target: T2, FAAH (Mus musculus, UniProt O08914); assay: In vivo FAAH inhibition after oral dosing, remaining activity in brain homogenate (BRh, central nervous tissue); set-up: species or system NMRI mice; conditions: brain homogenate; for In Vivo BRh 3 mg · kg · 8 h (remaining FAAH activity): 3 mg/kg oral, low value = strong inhibitor
T2 construct: A fragment of liver, left lung lobe and brain without cerebellum were removed; from tissue; host or cells: male NMRI mice; brain (without cerebellum) and liver homogenates
T2 sequence (O08914 1-579): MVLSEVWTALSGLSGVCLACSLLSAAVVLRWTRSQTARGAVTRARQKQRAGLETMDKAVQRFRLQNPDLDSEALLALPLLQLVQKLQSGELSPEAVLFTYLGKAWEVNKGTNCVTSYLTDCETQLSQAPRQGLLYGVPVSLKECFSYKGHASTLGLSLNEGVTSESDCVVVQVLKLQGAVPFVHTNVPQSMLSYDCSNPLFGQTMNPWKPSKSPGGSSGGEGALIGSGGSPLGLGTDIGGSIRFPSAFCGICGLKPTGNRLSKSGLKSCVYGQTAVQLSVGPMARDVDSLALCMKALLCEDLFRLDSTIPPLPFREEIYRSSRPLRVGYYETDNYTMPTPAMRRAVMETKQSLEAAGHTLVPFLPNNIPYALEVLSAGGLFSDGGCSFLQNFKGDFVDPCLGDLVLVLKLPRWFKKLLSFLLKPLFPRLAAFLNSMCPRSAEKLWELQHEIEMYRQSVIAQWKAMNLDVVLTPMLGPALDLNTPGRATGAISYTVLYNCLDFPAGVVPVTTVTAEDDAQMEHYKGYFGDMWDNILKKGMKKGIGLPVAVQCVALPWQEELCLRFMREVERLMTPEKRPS
Method in brief: (§1)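 Remaining FAAH activity is given as % of vehicle-treated controls after blank subtraction, measured by radiolabelled AEA hydrolysis (2 μM AEA, 5 nM 3H-AEA, 37 °C) in brain (10 min) or liver (7 min) homogenates. These came from fasted male NMRI mice dosed orally at 30 or 3 mg/kg.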

[3] = target: T2, FAAH; assay: In vivo FAAH inhibition after oral dosing, remaining activity in liver homogenate (LVh, peripheral tissue); set-up: species or system NMRI mice; conditions: liver homogenate; for In Vivo LVh 3 mg · kg · 8 h (remaining FAAH activity): 3 mg/kg oral, low value = strong inhibitor
Method in brief: as §1

In the case of `CN(C(=O)n1cnc(-c2ccccc2)c1)c1ccccc1` [Compound 4, N-methyl-N,4-diphenyl-1H-imidazole-1-carboxamide], the “In Vitro FAAH activity, 100 nM” value [1] is reported as 83.6 % of control, the “In Vitro FAAH activity, 10 uM” value [1] is reported as 0.1 % of control and the “In Vivo BRh 30 mg/kg 1 h, remaining FAAH activity” value [2] is reported as 14.3 % of control. The “In Vivo LVh 30 mg/kg 1 h, remaining FAAH activity” value [3] was 10.6 % of control.
With `CN(C(=O)n1cnc(-c2ccc3ccccc3c2)c1)c1ccccc1` [Compound 14, N-methyl-4-(naphthalen-2-yl)-N-phenyl-1H-imidazole-1-carboxamide] the “In Vitro FAAH activity, 100 nM” value [1] was 68.3 % of control, the “In Vitro FAAH activity, 10 uM” value [1] was 0 % of control and the “In Vivo BRh 30 mg/kg 1 h, remaining FAAH activity” value [2] was 96.7 % of control. The “In Vivo LVh 30 mg/kg 1 h, remaining FAAH activity” value [3] was 77.3 % of control.
With `O=C(N1CCOCC1)n1nnc2ccccc21` [Compound 19, (1H-benzo[d][1,2,3]triazol-1-yl)(morpholino)methanone] the “In Vitro FAAH activity, 100 nM” value [1] was 3.1 % of control, the “In Vitro FAAH activity, 10 uM” value [1] was 0.1 % of control and the “In Vivo BRh 30 mg/kg 1 h, remaining FAAH activity” value [2] was 46.6 % of control. For the same molecule, the “In Vivo LVh 30 mg/kg 1 h, remaining FAAH activity” value [3] was 41.1 % of control.
For `CN(C(=O)n1cnc(-c2ccc(F)cc2)c1)c1ccccc1` [Compound 29, 4-(4-fluorophenyl)-N-methyl-N-phenyl-1H-imidazole-1-carboxamide], the “In Vitro FAAH activity, 100 nM” value [1] was 52.5 % of control, the “In Vitro FAAH activity, 10 uM” value [1] was 0 % of control and the “In Vivo BRh 30 mg/kg 1 h, remaining FAAH activity” value [2] was 10.7 % of control. For the same molecule, the “In Vivo LVh 30 mg/kg 1 h, remaining FAAH activity” value [3] was 17.2 % of control.
In the case of `CN(C(=O)n1nnc2ccc(Cl)cc21)c1ccccc1` [Compound 32, 6-chloro-N-methyl-N-phenyl-1H-benzo[d][1,2,3]triazole-1-carboxamide], the “In Vitro FAAH activity, 100 nM” value [1] is reported as 0.1 % of control, the “In Vitro FAAH activity, 10 uM” value [1] is reported as 0 % of control and the “In Vivo BRh 30 mg/kg 1 h, remaining FAAH activity” value [2] is reported as 85.9 % of control. The “In Vivo LVh 30 mg/kg 1 h, remaining FAAH activity” value [3] was 64.9 % of control.
In the case of `CN(C(=O)n1nnc2cc(Cl)ccc21)c1ccccc1` [Compound 33, 5-chloro-N-methyl-N-phenyl-1H-benzo[d][1,2,3]triazole-1-carboxamide], the “In Vitro FAAH activity, 100 nM” value [1] is reported as 6.2 % of control, the “In Vitro FAAH activity, 10 uM” value [1] is reported as 0 % of control and the “In Vivo BRh 30 mg/kg 1 h, remaining FAAH activity” value [2] is reported as 82.3 % of control. For the same molecule, the “In Vivo LVh 30 mg/kg 1 h, remaining FAAH activity” value [3] was 76.7 % of control.
In the case of `CN(C(=O)n1cnc(-c2ccc(O)c(C(N)=O)c2)c1)C1CCCCC1` [Compound no. 499, 4-(3-carbamoyl-4-hydroxyphenyl)-N-cyclohexyl-N-methyl-1H-imidazole-1-carboxamide], the “In Vivo BRh 3 mg · kg · 8 h (remaining FAAH activity)” value [2] is reported as 120.6 % of control and the “In Vivo LVh 3 mg · kg · 8 h (remaining FAAH activity)” value [3] is reported as 44.1 % of control.
For `CN(C(=O)n1cnc(-c2ccc(F)c(O)c2)c1)C1CCOCC1` [Compound no. 500, 4-(4-fluoro-3-hydroxyphenyl)-N-methyl-N-(tetrahydro-2H-pyran-4-yl)-1H-imidazole-1-carboxamide], the “In Vivo BRh 3 mg · kg · 8 h (remaining FAAH activity)” value [2] was 75.1 % of control and the “In Vivo LVh 3 mg · kg · 8 h (remaining FAAH activity)” value [3] was 21.8 % of control.
In the case of `COc1ccc(-c2cn(C(=O)N(C)C3CCNCC3)cn2)cc1` [Compound no. 501, 4-(4-methoxyphenyl)-N-methyl-N-(piperidin-4-yl)-1H-imidazole-1-carboxamide], the “In Vivo BRh 3 mg · kg · 8 h (remaining FAAH activity)” value [2] is reported as 108.5 % of control and the “In Vivo LVh 3 mg · kg · 8 h (remaining FAAH activity)” value [3] is reported as 67.4 % of control.
With `CCN1CCC(N(C)C(=O)n2cnc(-c3cccc(OC)c3)c2)CC1` [Compound no. 502, N-(1-ethylpiperidin-4-yl)-4-(3-methoxyphenyl)-N-methyl-1H-imidazole-1-carboxamide] the “In Vivo BRh 3 mg · kg · 8 h (remaining FAAH activity)” value [2] was 50.2 % of control and the “In Vivo LVh 3 mg · kg · 8 h (remaining FAAH activity)” value [3] was 11.5 % of control.
In the case of `CCN1CCC(N(C)C(=O)n2cnc(-c3ccc(OC)c(F)c3)c2)CC1` [Compound no. 503, N-(1-ethylpiperidin-4-yl)-4-(3-fluoro-4-methoxyphenyl)-N-methyl-1H-imidazole-1-carboxamide], the “In Vivo BRh 3 mg · kg · 8 h (remaining FAAH activity)” value [2] is reported as 78.8 % of control and the “In Vivo LVh 3 mg · kg · 8 h (remaining FAAH activity)” value [3] is reported as 25.1 % of control.
`CN(C(=O)n1cnc(-c2ccccc2)c1)C1CCNCC1.Cl` [Compound no. 504, N-methyl-4-phenyl-N-(piperidin-4-yl)-1H-imidazole-1-carboxamide hydrochloride] was tested, and the “In Vivo BRh 3 mg · kg · 8 h (remaining FAAH activity)” value [2] was 112.5 % of control and the “In Vivo LVh 3 mg · kg · 8 h (remaining FAAH activity)” value [3] was 51.2 % of control.
`COc1ccc(-c2cn(C(=O)N(C)C3CCCCC3)cn2)cc1/C(N)=N\O` [Compound no. 507, (E)—N-cyclohexyl-4-(3-(N′-hydroxycarbamimidoyl)-4-methoxyphenyl)-N-methyl-1H-imidazole-1-carboxamide] was tested, and the “In Vivo BRh 3 mg · kg · 8 h (remaining FAAH activity)” value [2] was 101.7 % of control and the “In Vivo LVh 3 mg · kg · 8 h (remaining FAAH activity)” value [3] was 34 % of control.
`CCN1CCC(N(C)C(=O)n2cnc(-c3cccc([N+](=O)[O-])c3)c2)CC1` [Compound no. 509, N-(1-ethylpiperidin-4-yl)-N-methyl-4-(3-nitrophenyl)-1H-imidazole-1-carboxamide] was tested, and the “In Vivo BRh 3 mg · kg · 8 h (remaining FAAH activity)” value [2] was 78.3 % of control and the “In Vivo LVh 3 mg · kg · 8 h (remaining FAAH activity)” value [3] was 17.2 % of control.
In the case of `CN(C(=O)n1cnc(-c2ccc(O)c(C(N)=O)c2)c1)C1CCOCC1` [Compound no. 513, 4-(3-carbamoyl-4-hydroxyphenyl)-N-methyl-N-(tetrahydro-2H-pyran-4-yl)-1H-imidazole-1-carboxamide], the “In Vivo BRh 3 mg · kg · 8 h (remaining FAAH activity)” value [2] is reported as 90.3 % of control and the “In Vivo LVh 3 mg · kg · 8 h (remaining FAAH activity)” value [3] is reported as 14.4 % of control.
In the case of `CCCN1CCC(N(C)C(=O)n2cnc(-c3ccc[n+]([O-])c3)c2)CC1` [Compound no. 519, 3-(1-(methyl(1-propylpiperidin-4-yl)carbamoyl)-1H-imidazol-4-yl)pyridine 1-oxide], the “In Vivo BRh 3 mg · kg · 8 h (remaining FAAH activity)” value [2] is reported as 82 % of control and the “In Vivo LVh 3 mg · kg · 8 h (remaining FAAH activity)” value [3] is reported as 4.4 % of control.
`CN(C(=O)n1cnc(-c2cccnc2)c1)C1CCN(S(C)(=O)=O)CC1` [Compound no. 533, N-methyl-N-(1-(methylsulfonyl)piperidin-4-yl)-4-(pyridin-3-yl)-1H-imidazole-1-carboxamide] was tested, and the “In Vivo BRh 3 mg · kg · 8 h (remaining FAAH activity)” value [2] was 12 % of control and the “In Vivo LVh 3 mg · kg · 8 h (remaining FAAH activity)” value [3] was 0.2 % of control.
For `CCN1CCC(N(C)C(=O)n2cnc(-c3ccc(O)c(F)c3)c2)CC1` [Compound no. 536, N-(1-ethylpiperidin-4-yl)-4-(3-fluoro-4-hydroxyphenyl)-N-methyl-1H-imidazole-1-carboxamide], the “In Vivo BRh 3 mg · kg · 8 h (remaining FAAH activity)” value [2] was 74.6 % of control and the “In Vivo LVh 3 mg · kg · 8 h (remaining FAAH activity)” value [3] was 18.3 % of control.
`COc1ccc(-c2cn(C(=O)N(C)C3CCN(CCO)CC3)cn2)cc1F` [Compound no. 540, 4-(3-fluoro-4-methoxyphenyl)-N-(1-(2-hydroxyethyl)piperidin-4-yl)-N-methyl-1H-imidazole-1-carboxamide] was tested, and the “In Vivo BRh 3 mg · kg · 8 h (remaining FAAH activity)” value [2] was 89.7 % of control and the “In Vivo LVh 3 mg · kg · 8 h (remaining FAAH activity)” value [3] was 33.7 % of control.
